Patent publication US20260176289A1, “SMALL MOLECULE INHIBITORS OF KRAS PROTEINS” (Merck Sharp & Dohme LLC, priority 2022, published 2026)
Like-named read-outs stand apart in the source and are kept apart here.

Columns and labels:
AsPC-1 cells = experiment: Cellular phospho-ERK assay, AsPC-1 cells (homozygous KRAS-G12D); format: cell-based; conditions: read-out: AsPC1 pERK IC50
Procedure, shortened: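 Inhibition of ERK phosphorylation was determined after treating attached cells with compound for 2 h; top concentration 30 μM, serial 1:3 dilution. Each well's p-ERK:total ERK ratio, read by SureFire Ultra, was fitted with a four-parameter model for IC50.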

KRAS-G12V = KRAS-G12V (Homo sapiens, UniProt P01116, G12V); experiment: SOS-catalyzed nucleotide exchange assay (Procedure A, TR-FRET), KRAS-G12V; format: biochemical
Procedure, shortened: (§1)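 Signal ratio (520/495 nm, excitation 340 nm) reports Bodipy-GDP retention on biotinylated RAS after SOS-catalyzed exchange with 3 mM GTP. SOS was 40 nM, except 160 nM for G12V. Room-temperature exchange lasted 60 min (90 min for G12V), following a 60 min compound preincubation.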

KRAS-G12D = KRAS-G12D (Homo sapiens, UniProt P01116, G12D); experiment: SOS-catalyzed nucleotide exchange assay (Procedure A, TR-FRET), KRAS-G12D; format: biochemical
Procedure, shortened: as §1

KRAS-WT = KRAS-WT (Homo sapiens, UniProt P01116); experiment: SOS-catalyzed nucleotide exchange assay (Procedure A, TR-FRET), KRAS-WT; format: biochemical
Procedure, shortened: as §1

[1] = nucleotide exchange, read-out: KRAS G12V GNE IC50
[2] = nucleotide exchange, read-out: KRAS G12D GNE IC50
[3] = nucleotide exchange, read-out: KRAS WT GNE IC50
[4] = Homo sapiens, ASPC1, 2 h, 2 hours compound incubation
[5] = Homo sapiens, ASPC1, 2 h, KRAS-G12D, 2 hours

KRAS-G12V, sequence (P01116 with tags, fused parts or gaps isoform P01116-2 G12V): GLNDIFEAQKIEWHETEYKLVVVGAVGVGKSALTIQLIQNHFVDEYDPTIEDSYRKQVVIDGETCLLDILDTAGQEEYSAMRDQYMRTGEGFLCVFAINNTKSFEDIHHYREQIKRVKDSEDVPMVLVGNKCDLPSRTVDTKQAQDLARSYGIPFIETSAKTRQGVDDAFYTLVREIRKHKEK
KRAS-G12D, sequence (P01116 with tags, fused parts or gaps isoform P01116-2 G12D): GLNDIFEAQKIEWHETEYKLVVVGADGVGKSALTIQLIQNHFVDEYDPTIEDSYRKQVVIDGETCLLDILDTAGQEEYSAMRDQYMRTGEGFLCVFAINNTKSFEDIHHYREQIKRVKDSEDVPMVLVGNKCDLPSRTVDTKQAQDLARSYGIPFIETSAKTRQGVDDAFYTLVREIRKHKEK
KRAS-WT, sequence (P01116 with tags, fused parts or gaps isoform P01116-2): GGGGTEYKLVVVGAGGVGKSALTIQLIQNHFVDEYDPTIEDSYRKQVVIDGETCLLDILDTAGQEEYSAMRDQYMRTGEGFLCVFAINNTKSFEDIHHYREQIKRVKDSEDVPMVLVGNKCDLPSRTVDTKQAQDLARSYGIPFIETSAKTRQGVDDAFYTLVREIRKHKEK

Row | SMILES | IC50 (AsPC-1 cells; KRAS-G12D, 2 hours) [nM] | IC50 (KRAS-G12V; [1]) [nM] | IC50 (KRAS-G12D; [2]) [nM] | IC50 (KRAS-WT; [3]) [nM] | IC50 (AsPC-1 cells; [4]) [nM] | IC50 (AsPC-1 cells; [5]) [nM] | IC50 (AsPC-1 cells; Homo sapiens, ASPC1, 2 hours compound incubation) [nM] | IC50 (KRAS-G12V; KRAS G12V GNE IC50, nucleotide exchange) [nM] | IC50 (KRAS-G12D; KRAS G12D GNE IC50, nucleotide exchange) [nM] | IC50 (KRAS-WT; KRAS WT GNE IC50, nucleotide exchange) [nM]
1 | CN(C)C1CC(F)(F)C2C[C@]12COc1nc(N2CCOC[C@@](C)(O)C2)c2c(n1)sc1c(-c3c(C4(F)CC4)c(Cl)cc4[nH]ncc34)nccc12 (stereo partly shown) [Ex-271] | 244 | 37.3 | 42.2 | 78.8 | – | – | – | – | – | –
2 | C[C@@]1(O)COCCN(c2nc(OC[C@]3(CN4CC5CC4(CF)C5)CC3(F)F)nc3sc4c(-c5c(C6(F)CC6)c(Cl)cc6[nH]ncc56)nccc4c23)C1 [Ex-259, (6S)-4-(8-(6-chloro-5-(1-fluorocyclopropyl)-1H-indazol-4-yl)-2-(((R)-2,2-difluoro-1-((1-(fluoromethyl)-2-azabicyclo[2.1.1]hexan-2-yl)methyl)cyclopropyl)metho-xy)pyrido[4′,3′:4,5]thieno[2,3-d]pyrimidin-4-yl)-6-methyl-1,4-oxazepan-6-ol] | – | 34.2 | 11.3 | 79.7 | 184 | – | – | – | – | –
3 | C[C@@H]1CCN1C[C@@]1(COc2nc(N3CCOC[C@@](C)(O)C3)c3c(n2)sc2c(-c4c(C5(F)CC5)c(Cl)cc5[nH]ncc45)nccc23)CC1(F)F [Ex-261, (6S)-4-(8-(6-chloro-5-(1-fluorocyclopropyl)-1H-indazol-4-yl)-2-(((R)-2,2-difluoro-1-(((R)-2-methylazetidin-1-yl)methyl)cyclopropyl)metho-xy)pyrido[4′,3′:4,5]thieno[2,3-d]pyrimidin-4-yl)-6-methyl-1,4-oxazepan-6-ol] | – | 58.3 | 17 | 81.6 | 369 | – | – | – | – | –
4 | C[C@H]1C[C@@H](COc2nc(N3CCOC[C@@](C)(O)C3)c3c(n2)sc2c(-c4c(C5CC5)c(C(F)(F)F)cc5[nH]ncc45)nccc23)N(C)C1 [Ex-82, (6S)-4-(8-(5-cyclopropyl-6-(trifluoromethyl)-1H-indazol-4-yl)-2-(((2S,4S)-1,4-dimethylpyrrolidin-2-yl)methoxy)pyrido[4′,3′:4,5]thi-eno[2,3-d]pyrimidin-4-yl)-6-methyl-1,4-oxazepan-6-ol] | – | 32.8 | 31.2 | 54.6 | – | 592 | – | – | – | –
5 | Cc1cc2cnn(C)c2c(-c2nccc3c2sc2nc(OC[C@@]45CCCN4C[C@H](F)C5)nc(N4CCOC[C@@](C)(O)C4)c23)c1C(F)(F)F [Ex-157, (6S)-4-(8-(1,5-dimethyl-6-(trifluoromethyl)-1H-indazol-7-yl)-2-(((2R,7aS)-2-fluorotetrahydro-1H-pyrrolizin-7a(5H)-yl)methoxy)pyrido[4′,3′:4,5]thieno[2,3-d]pyrimidin-4-yl)-6-methyl-1,4-oxazepan-6-ol] | – | 4230 | 288 | 9650 | 1310 | – | – | – | – | –
6 | C[C@@]1(O)COCCN(c2nc(OC[C@@]34CCCN3C[C@H](F)C4)nc3sc4c(-c5c(C(F)F)c(C(F)(F)F)cc6[nH]ncc56)nccc4c23)C1 [Ex-61, (6S)-4-(8-(5-(difluoromethyl)-6-(trifluoromethyl)-1H-indazol-4-yl)-2-(((2R,7aS)-2-fluorotetrahydro-1H-pyrrolizin-7a(5H)-yl)methoxy)pyrido[4′,3′:4,5]thi-eno[2,3-d]pyrimidin-4-yl)-6-methyl-1,4-oxazepan-6-ol] | – | 236 | 127 | 231 | – | 1280 | – | – | – | –
7 | C[C@@]1(O)COCCN(c2nc(OC[C@@]34CCCN3C[C@H](F)C4)nc3sc4c(-c5cccc(Cl)c5C5CC5)nncc4c23)C1 [Ex-284] | – | 138 | 195 | 578 | – | 935 | – | – | – | –
8 | C[C@@]1(O)COCCN(c2nc(OC[C@]3(CN4[C@@H]5CC[C@H]4C[C@H](F)C5)CC3(F)F)nc3sc4c(-c5c(C6(F)CC6)c(Cl)cc6[nH]ncc56)nccc4c23)C1 [Ex-251, (6S)-4-(8-(6-chloro-5-(1-fluorocyclopropyl)-1H-indazol-4-yl)-2-(((R)-2,2-difluoro-1-(((1R,3S,5S)-3-fluoro-8-azabicyclo[3.2.1]octan-8-yl)methyl)cyclopropyl)metho-xy)pyrido[4′,3′:4,5]thieno[2,3-d]pyrimidin-4-yl)-6-methyl-1,4-oxazepan-6-ol] | – | 110 | 53 | 489 | 670 | – | – | – | – | –
9 | CNc1cc2c(sc3nc(OC[C@@]45CCCN4C[C@H](F)C5)nc(N4CCOC[C@@](C)(O)C4)c32)c(-c2c(C(F)(F)F)c(C)cc3[nH]ncc23)n1 [Ex-30, (6S)-4-(2-(((2R,7aS)-2-fluorotetrahydro-1H-pyrrolizin-7a(5H)-yl)methoxy)-8-(6-methyl-5-(trifluoromethyl)-1H-indazol-4-yl)-6-(methylamino)pyrido[4′,3′:4,5]thieno[2,3-d]pyrimidin-4-yl)-6-methyl-1,4-oxazepan-6-ol] | – | 196 | 158 | 436 | – | 730 | – | – | – | –
10 | C[C@@]1(O)COCCN(c2nc(OC[C@]3(CN4CC5(CCO5)C4)CC3(F)F)nc3sc4c(-c5c(C6(F)CC6)c(Cl)cc6[nH]ncc56)nccc4c23)C1 [Ex-265, (6S)-4-(2-(((R)-1-((1-oxa-6-azaspiro[3.3]heptan-6-yl)methyl)-2,2-difluorocyclopropyl)methoxy)-8-(6-chloro-5-(1-fluorocyclopropyl)-1H-indazol-4-yl)pyrido[4′,3′:4,5]thieno[2,3-d]pyrimidin-4-yl)-6-methyl-1,4-oxazepan-6-ol] | – | 14.9 | 4.21 | 24.5 | 200 | – | – | – | – | –
11 | Cc1cc2[nH]ncc2c(-c2nccc3c2C2(CC2)c2nc(OC[C@@]45CCCN4C[C@H](F)C5)nc(N4CCOC[C@@](C)(O)C4)c2-3)c1C(F)(F)F (single isomer, unassigned) [Ex-307] | – | 24.7 | 8.96 | 22.4 | – | 258 | – | – | – | –
12 | C[C@@H]1C[C@@H](COc2nc(N3CCOC[C@@](C)(O)C3)c3c(n2)sc2c(-c4c(C5CC5)c(C(F)(F)F)cc5[nH]ncc45)nccc23)N(C)C1 [Ex-83, (6S)-4-(8-(5-cyclopropyl-6-(trifluoromethyl)-1H-indazol-4-yl)-2-(((2S,4R)-1,4-dimethylpyrrolidin-2-yl)methoxy)pyrido[4′,3′:4,5]thi-eno[2,3-d]pyrimidin-4-yl)-6-methyl-1,4-oxazepan-6-ol] | – | 103 | 80.1 | 130 | – | 1360 | – | – | – | –
13 | Cc1cc2[nH]ncc2c(-c2nccc3c2sc2nc(OC[C@@]45CCCN4C[C@H](F)C5)nc(N4CCOCC(O)(CF)C4)c23)c1C(F)(F)F (stereo partly drawn) [Ex-202, 6-(fluoromethyl)-4-(2-(((2R,7aS)-2-fluorotetra-hydro-1H-pyrrolizin-7a(5H)-yl)methoxy)-8-(6-methyl-5-(trifluoro-methyl)-1H-indazol-4-yl)-pyrido[4′,3′:4,5]thieno [2,3-d]pyrimidin-4-yl)-1,4-oxazepan-6-ol] | – | 229 | 97.5 | 292 | 701 | – | – | – | – | –
14 | C[C@@]1(O)COCCN(c2nc(OC[C@]3(CN4CC5(CCC5)C4)CC3(F)F)nc3sc4c(-c5c(C6(F)CC6)c(Cl)cc6[nH]ncc56)nccc4c23)C1 [Ex-256, (6S)-4-(2-(((R)-1-((2-azaspiro[3.3]heptan-2-yl)methyl)-2,2-difluorocyclopropyl)methoxy)-8-(6-chloro-5-(1-fluorocyclopropyl)-1H-indazol-4-yl)pyrido[4′,3′:4,5]thieno[2,3-d]pyrimidin-4-yl)-6-methyl-1,4-oxazepam-6-ol] | – | – | – | – | – | – | 126 | 11.1 | 4.41 | 16.5
15 | COc1cc2c(sc3nc(OC[C@@]45CCCN4C[C@H](F)C5)nc(N4CCOC[C@@](C)(O)C4)c32)c(-c2c(C(F)(F)F)c(C)cc3[nH]ncc23)n1 [Ex-27, (6S)-4-(2-(((2R,7aS)-2-fluorotetrahydro-1H-pyrrolizin-7a(5H)-yl)methoxy)-6-methoxy-8-(6-methyl-5-(trifluoromethyl)-1H-indazol-4-yl)pyrido[4′,3′:4,5]thieno[2,3-d]pyrimidin-4-yl)-6-methyl-1,4-oxazepan-6-ol] | – | 221 | 196 | 793 | – | 660 | – | – | – | –
16 | C[C@@]1(O)COCCN(c2nc(OC[C@]3(CN4C[C@@H]5CCCO[C@H]5C4)CC3(F)F)nc3sc4c(-c5c(C6(F)CC6)c(Cl)cc6[nH]ncc56)nccc4c23)C1 [Ex-252, (6S)-4-(8-(6-chloro-5-(1-fluorocyclopropyl)-1H-indazol-4-yl)-2-(((R)-2,2-difluoro-1-(((4aS,7aR)-hexahydropyrano[2,3-c]pyrrol-6(2H)-yl)methyl)cyclopropyl)methoxy)pyrido[4′,3′:4,5]thieno[2,3-d]pyrimidin-4-yl)-6-methyl-1,4-oxazepan-6-ol] | – | 32.2 | 4.96 | 57.8 | 232 | – | – | – | – | –
